Test results published in patent EP3070175A1, “TEST FOR DETERMINING SUSCEPTIBILITY OR RESISTANCE TO POLYMYXINS IN ENTEROBACTERIACEAE” (Université de Fribourg, priority 2015, dated 2016).

System: enterobacterial strains
Assay: Polymyxin test: colorimetric detection of growth with polymyxin B as selective antibiotic
Assay type: cell-based, Enterobacteriaceae
Conditions: polymyxin B instead of colistin as selective antibiotic; all tested strains
Protocol: Each inoculum was prepared by mixing 1 öse (10 µl) of a fresh culture of the tested bacteria in 5 ml of sterile NaCl 0.85% (at a density of 3 Mac Farland, i.e. about 10^9 CFU/ml).
250 ml of reactive medium was prepared by mixing the compounds hereafter: • a broth powder of a non selective growth medium for bacteria, the Cation-Adjusted Mueller-Hinton broth (MHB-CA) : 6.25 g • a colour indicator, the phenol red : 0.0125 g • sterile distilled water 225 ml • sterile D (+)-glucose (10 %) anhydrous (sterilization by filtration) : 25 ml
The pH of the final reactive medium was adjusted to 6.6 and 6.7 with HCl 1M.
Colistin or polymyxin B was added or not at the concentration of 5 mg/L in the reactive medium. Standard colistin sulphate and polymyxin B were from Sigma Aldrich (Saint-Louis, France). Those antibiotic molecule powders were kept at 4°C before their use, whereas polymyxin dilutions were kept at -20°C.
For each strain, two wells of a plastic sterile plate with 96 shaped wells were inoculated in parallel with and without polymyxin (colistin sulphate or polymyxin B) in order to compare their colour change.
Plastic sterile plates were from Sarstedt (Nümbrecht, Germany). The tray may be prepared as follows : • 1. […]
The results of the tests were recorded at 10 min (checking for no spontaneous colour change in the well) and then every hour for a maximum of 4 hours by visual inspection. […]

polymyxin B
Results of the method of the invention compared with colistin: Identical results
